Test results as given in US20240350458A1, “14-3-3 PROTEIN MODULATORS AS ANTITUMOR AGENTS” (priority 2021, published 2024).
Entries after “also recorded” stand apart in the source; their conditions may differ.

Experiments:
410 human kinases = test: ProQinase kinase profiling; format: biochemical; conditions: at 1 and 0.1 μM
[1] = test system: peripheral blood mononuclear cells (PBMC); test: Annexin V apoptosis in PBMC from healthy donors (FACS); format: cell-based; conditions: 200 nM, 48 h
Protocol: FC86 was incubated with cells at the concentration of 200 nM for 48 h. Annexin V was detected by flow cytometry (FACS). PBMCs (Peripheral blood mononuclear cells) were not affected by FC86.

[2] = test system: eight B-cell lymphoma cell lines; test: MTT proliferation assay, panel of eight B-cell lymphoma cell lines; format: cell-based
Protocol: All the above compounds were tested in vitro for their anticancer activity against a panel of eight B-cell lymphoma cell lines by MTT proliferation assay. The tested cell lines belonging to mantle cell lymphoma (MCL: REC1, Z138), activated B-cell diffuse large B-cell lymphoma (ABC-DLBCL: R11, HBL1, U2932, TMD8), germinal center B-cell diffuse large B-cell lymphoma (GCB-DLBCL: SU-DHL-10, FARAGE) subtypes. In overall, MCL cell lines present Cyclin D1 overexpression, while ABC- and GCB-DLBCL's proliferation is BCR and BCL6/HDACs driven, respectively. At the RNA level, all tested lymphoma cell lines were characterized by an overexpression of 14-3-3 zeta as reported for B-cell lymphomas resistant to chemotherapeutic regimen.

14-3-3 [3] = test: DARTS in U937 cells; format: binding; conditions: 50 nM, 2 h, MS and western blot
Protocol: FIG. 4 represents DARTS experiments results as reported in example 6: Proteins obtained from U937 cells incubated with 50 nM FC86 or with the medium for 2 h underwent subtilisin-catalyzed digestion.
(§1) Current protocols in chemical biology 2011, 3:163-180]. […] The same DARTS experiments were also performed by incubating glioblastoma cell lines (U87MG) with subtoxic amounts of FC86 and data collected confirmed the 14-3-3 as target protein. (FIG. 5).
(§2) The identification of putative targets of FC86 was achieved by Drug Affinity Responsive Target Stability (DARTS) experiments. Cancer cells were incubated with a sub-toxic concentration (50 nM for U937 and 5 μM for U87MG) of FC86 for 2 h or with the medium (control cells). After the treatments, treated and control cells were collected and whole protein extracts were prepared by lysing cells in 20 mM Tris-HCl (pH 7.5), 150 mM NaCl, 1 mM EDTA, 1 mM EGTA, 1% NP-40, 1% sodium deoxycholate, 2.5 mM sodium pyrophosphate, 1 mM β-glycerophosphate, 1 mM Na3VO4, 1 μg/ml leupeptin. Protein concentration was determined by the Bradford protein assay using bovine serum albumin as standard. […] Parameters sets were: trypsin cleavage; carbamidomethylation of cysteine as a fixed modification and methionine oxidation as a variable modification; a maximum of two missed cleavages; false discovery rate (FDR), calculated by searching the decoy database, 0.05. […]

[4] = test system: healthy human thyroid cells; test: Toxicity in healthy human thyroid cells (trypan blue staining); format: cell-based; conditions: 72 h
Protocol: FRTL5 were assayed with MTT, while healthy human thyroid cells by trypan blue staining. The percentage of dead cells, as counted after trypan blue staining, was around 10-15% at the dose of 800 nM of FC86.
To assess the toxicity FC86 was evaluated against a primary healthy human thyroid cell line at concentrations ranging from 3 nM to 800 nM for 72 h (FIG. 3). Data collected reveal that FC86 is not toxic for healthy human thyroid cells at concentration […] 400 nM. Such a concentration is 20× fold higher than IC50 detected in tumour cell lines.

TC-32 = test: MTT proliferation assay, Ewing sarcoma; format: cell-based; conditions: Homo sapiens
Protocol: (§3) The antiproliferative activity was assessed by MTT proliferation assay (Table III) The anticancer activity was also investigated in a rare and lethal cancer (i.e. anaplastic thyroid cancer) by the use of three ATC-derived cell lines (Sw, FRO, 8505c). Again, the IC50 value after 72 h exposure was in the range of 10 to 50 nM. The same trend was also observed in four melanoma cell lines A2058, M14 (genotype BRAFV600E), SKMEL 197 e MEWO (genotype BRAF wild-type).
(§4) Table III IC50 expressed in μM and Emax (at 30 μM) for FC86 after 72 h exposure, were calculated by MTT assay

SKNMC = test: MTT proliferation assay, Ewing sarcoma; format: cell-based; conditions: Homo sapiens, SK-N-MC, 72 h exposure
Protocol: as §3, §4

6647 = test: MTT proliferation assay, Ewing sarcoma; format: cell-based
Protocol: as §3, §4

TC-71 = test: MTT proliferation assay, Ewing sarcoma; format: cell-based
Protocol: as §3, §4

A673 = test: MTT proliferation assay, Ewing sarcoma; format: cell-based; conditions: Homo sapiens
Protocol: as §3, §4

14-3-3 [5] = test: DARTS in U87MG cells; format: binding; conditions: 5 μM, 2 h, MS and western blot
Protocol: FIG. 5 represents DARTS experiments results as reported in example 6: Proteins obtained from U87MG cells incubated with 5 μM of FC86 or with the medium for 2 h underwent subtilisin-catalyzed digestion.
as §1, §2

## Cc1ccc(S(=O)(=O)Nc2ccc3c(c2)/C(=C/c2cccs2)C(=O)N3)cc1 [FC86, N-[(3Z)-2-oxo-3-(thiophene-2-ylmethylidene)-2,3-dihydro-1H-indol-5-yl]-4-methylbenzenesulfonamide]
410 human kinases
  activity against 410 human kinases: lack of activity against any of them
[1]
  apoptosis (Annexin V) in PBMC: did not detect any sign of apoptosis; also recorded: not affected
[2]; B-cell, read-out: IC50 in all eight lymphoma cell lines
  IC50: < 1000 nM
[2]; eight different lymphoma cell lines
  IC50 in eight different lymphoma cell lines: nanomolar range
14-3-3 [3]
  resistance of 14-3-3 to subtilisin proteolysis (DARTS): significant protection from proteolysis; also recorded: significant increment of resistance to proteolysis
[4]; at concentration higher than 400 nM
  toxicity for healthy human thyroid cells: not toxic
[4]; healthy human thyroid cells, 800 nM
  percentage of dead cells (trypan blue staining): 10-15%
TC-32; Ewing Sarcoma TC-32, 30 μM, 72 h
  Emax at 30 µM: 75%
TC-32; Ewing Sarcoma TC-32, 72 h exposure
  IC50: 30 nM
SKNMC
  IC50: > 30000 nM
6647; Ewing Sarcoma 6647, 30 μM, 72 h
  Emax at 30 µM: 75%
6647; Ewing Sarcoma 6647, 72 h exposure
  IC50: 90 nM
TC-71; Ewing Sarcoma TC-71, 30 μM, 72 h
  Emax at 30 µM: 95%
TC-71; Ewing Sarcoma TC-71, 72 h exposure
  IC50: 800 nM
A673; Ewing Sarcoma A673, 30 μM, 72 h
  Emax at 30 µM: 85%
A673; Ewing Sarcoma A673, 72 h exposure
  IC50: 3200 nM
14-3-3 [5]
  resistance of 14-3-3 to subtilisin proteolysis (DARTS): significant increment of resistance to proteolysis
